Source: patent US20260083687A1, “COMPOUNDS FOR REDUCING LACTATION AND IMPROVING HEALTH” (AHV International B.V., priority 2022, published 2026)
Where “and” joins values, the source holds several entries; their conditions need not be identical. Identical values can stand only once.

Test system: cows
Experiment: Effect of 40 ml and 80 ml oral DPD capsule vs placebo on the milk yield of cows (Example 1)
Format: in vivo, cow
Set-up: average milk drop (Difference: observed minus expected milk yield) / average milk drop (difference): unit not given here
Settings: for Milk production: 40 ml DPD oral capsule on day 13, individual cows
Method: 15 cows from 3 different farms were used in study 1 and 30 cows from 4 different farms were used in study 2. […] The cows are milked twice a day. The cows were housed in free stables. […] The farmers were not informed which cows were treated.
The placebo group existed of 8 cows, whereas the size of the treated group was 7 cows.
For study 2, the gelatin capsule contained 80 ml of the DPD and the gelatine capsule for the placebo group contained tap water. Nine cows were administered a single dose of DPD 7 to 14 days before the start of their dry-off period and nine cows were administered a single dose of the placebo capsule. The cows were placed randomly in the DPD or placebo group. This was done per group that was dried off at the same time for every farm individually, so that every farm had 50% of the cows in the treatment group and 50% in the control group.
On t =13 days the DPD-containing capsules and the placebo capsules were administered.
The following hypothesis was tested and compared by statistical analysis: H0 is defined as there is no difference between the relative milk production before and after treatment between administering of the DPD bolus and placebo, and H1 is defined as there is a difference between the relative milk production before and after treatment between the DPD and placebo group.
The data were processed as follows: based on the data obtained from day 0, 1, 2, 3 . . . 12 the expected milk yields on day 13, 14, […] were calculated by linear regression for each cow. On t=13 the Placebo-capsule or DPD-containing capsule were administered into the rumen. The predicted data (as if no administration of a Placebo or DPD-containing capsule has taken place) and actual milk yields after administration were compared from t=13 days and the milk drop was calculated. This was performed for all the cows in the tests.
Hereafter, the average milk drop was calculated as the difference between the observed and the expected milk yield per day, which is calculated by comparing the expected milk yields that were obtained via linear regression, and the actual milk yields, obtained after treatment with a Placebo or DPD.
The Null Hypothesis is that the difference is zero. We calculate the P-values for these differences using a permutation test (5000 samples).
The Null Hypothesis was defined that that the difference of the 6 treatment cows and Placebo cows is zero. We calculate the P-values for these differences using a permutation test (5000 samples).

SMILES: CCCSSCCC [DPD, di-n-propyl disulfide]
- Milk production (day 1 (before treatment)): 15.9 and 25.8
- Milk production (day 2 (before treatment)): 15.3 and 31.7 and 5.9
- Milk production (day 3 (before treatment)): 16 and 30.4 and −1.3
- Milk production (day 4 (before treatment)): 15.6 and 29.9
- Milk production (day 5 (before treatment)): 15.2 and 27.7
- Milk production (day 6 (before treatment)): 14.5 and 28.4 and 23.6 and 24.5
- Milk production (day 7 (before treatment)): 14.9 and 29.3 and 24 and 24.4
- Milk production (day 8 (before treatment)): 13.4 and 28.1 and 22.4 and 24.6
- Milk production (day 9 (before treatment)): 13.6 and 28.4 and 24.4 and 24.7
- Milk production (day 10 (before treatment)): 13.8 and 27 and 23.4 and 25.3
- Milk production (day 11 (before treatment)): 13.7 and 28.8 and 24.2 and 22.5
- Milk production (day 12 (before treatment)): 12.9 and 27 and 21.7 and 22.2
- Milk production (day 13 (day of treatment)): 12.9 and 27.7 and 23.2 and 20.4
- Milk production (day 14): 12 and 26.4 and 22.2 and 22.3
- Milk production (day 15): 11.4 and 23.7 and 23.1 and 20.5
- Milk production (day 16): 11.4 and 21.5 and 23.7 and 24.4
- Milk production (day 17): 12.8 and 25.4 and 23.1 and 22
- Milk production (day 18): 10.9 and 27.5 and 23.2 and 14.8
- Milk production (day 19): 11.6 and 25.7 and 22.9 and 9.8
- Milk production (day 20): 10.2 and 24.8 and 22.3 and 24.3
- Milk production (day 21): 9.9 and 23 and 21.3 and 25.8
- effect on milk yield (40 ml DPD vs placebo): not in a significant decrease on milk yield
- Mean Difference Treatment − Placebo (40 ml DPD, day 14): −0.3233 litres milk per day per cow
- Significant (effect on milk yield vs placebo) (40 ml DPD, day 14): No
- average milk drop (Difference: observed minus expected milk yield) (40 ml DPD, day 14): −0.226
- Mean Difference Treatment − Placebo (40 ml DPD, day 15): −0.873 litres milk per day per cow
- Significant (effect on milk yield vs placebo) (40 ml DPD, day 15): No
- average milk drop (Difference: observed minus expected milk yield) (40 ml DPD, day 15): −0.9122
- Mean Difference Treatment − Placebo (40 ml DPD, day 16): 1.599 litres milk per day per cow
- Significant (effect on milk yield vs placebo) (40 ml DPD, day 16): No
- average milk drop (Difference: observed minus expected milk yield) (40 ml DPD, day 16): 1.673
- Mean Difference Treatment − Placebo (40 ml DPD, day 17): −0.4365 litres milk per day per cow
- Significant (effect on milk yield vs placebo) (40 ml DPD, day 17): No
- average milk drop (Difference: observed minus expected milk yield) (40 ml DPD, day 17): 1.201
- Mean Difference Treatment − Placebo (40 ml DPD, day 18): −0.5789 litres milk per day per cow
- Significant (effect on milk yield vs placebo) (40 ml DPD, day 18): No
- average milk drop (Difference: observed minus expected milk yield) (40 ml DPD, day 18): 0.4719
- Mean Difference Treatment − Placebo (40 ml DPD, day 19): −0.9982 litres milk per day per cow
- Significant (effect on milk yield vs placebo) (40 ml DPD, day 19): No
- average milk drop (Difference: observed minus expected milk yield) (40 ml DPD, day 19): −0.2714
- Mean Difference Treatment − Placebo (40 ml DPD, day 20): −0.296 litres milk per day per cow
- Significant (effect on milk yield vs placebo) (40 ml DPD, day 20): No
- average milk drop (Difference: observed minus expected milk yield) (40 ml DPD, day 20): 1.657
- Mean Difference Treatment − Placebo (40 ml DPD, day 21): 0.1722 litres milk per day per cow
- Significant (effect on milk yield vs placebo) (40 ml DPD, day 21): No
- average milk drop (Difference: observed minus expected milk yield) (40 ml DPD, day 21): 1.713
- effect on milk yield (80 ml DPD vs placebo): significant decrease in milk yield
- recovery of milk yield production (80 ml DPD, after the 3 days following treatment): recovers after this period
- Mean Difference Treatment − Placebo (80 ml DPD, day 13): 0.2566 litres milk per day per cow
- Significance (effect on milk yield vs placebo) (80 ml DPD, day 13): No
- average milk drop (difference) (80 ml DPD, day 13): 0.3592
- Mean Difference Treatment − Placebo (80 ml DPD, day 14): −4.56 litres milk per day per cow
- Significance (effect on milk yield vs placebo) (80 ml DPD, day 14): Yes
- average milk drop (difference) (80 ml DPD, day 14): −5.726
- Mean Difference Treatment − Placebo (80 ml DPD, day 15): −6.729 litres milk per day per cow
- Significance (effect on milk yield vs placebo) (80 ml DPD, day 15): Yes
- average milk drop (difference) (80 ml DPD, day 15): −7.051
- Mean Difference Treatment − Placebo (80 ml DPD, day 16): −4.421 litres milk per day per cow
- Significance (effect on milk yield vs placebo) (80 ml DPD, day 16): Yes
- average milk drop (difference) (80 ml DPD, day 16): −3.891
- Mean Difference Treatment − Placebo (80 ml DPD, day 17): −0.4065 litres milk per day per cow
- Significance (effect on milk yield vs placebo) (80 ml DPD, day 17): No
- average milk drop (difference) (80 ml DPD, day 17): −1.8508
- Mean Difference Treatment − Placebo (80 ml DPD, day 18): 0.2326 litres milk per day per cow
- Significance (effect on milk yield vs placebo) (80 ml DPD, day 18): No
- average milk drop (difference) (80 ml DPD, day 18): −1.4323
- Mean Difference Treatment − Placebo (80 ml DPD, day 19): 0.9803 litres milk per day per cow
- Significance (effect on milk yield vs placebo) (80 ml DPD, day 19): No
- average milk drop (difference) (80 ml DPD, day 19): −0.1878
- Mean Difference Treatment − Placebo (80 ml DPD, day 20): 1.162 litres milk per day per cow
- Significance (effect on milk yield vs placebo) (80 ml DPD, day 20): No
- average milk drop (difference) (80 ml DPD, day 20): 0.262
- decrease of milk production compared to the placebo group (average) (80 ml DPD, next 3 days after treatment): 6 litres per day per cow
- decreased milk production (DPD, day 2 after treatment): 7.7 L/day
